Key:
[1] = cited from earlier work
hSCN3A = target: T1, hSCN3A (Homo sapiens, UniProt Q9NY46); assay: SCN3A inhibitory activity in HEK cells stably expressing hSCN3A (whole-cell patch clamp / radiotracer efflux HTS); type: cell-based; conditions: HEK cells stably transfected with hSCN3A
T1 construct: expressed in transfected cells

Nav1.1 = Nav1.1 (Homo sapiens, UniProt P35498); conditions: read-out: TTX IC-50; cited from earlier work
Nav1.3 = Nav1.3 (Homo sapiens, UniProt Q9NY46); conditions: read-out: TTX IC-50; cited from earlier work
Chain of Nav1.3 (Q9NY46 whole entry, looked up): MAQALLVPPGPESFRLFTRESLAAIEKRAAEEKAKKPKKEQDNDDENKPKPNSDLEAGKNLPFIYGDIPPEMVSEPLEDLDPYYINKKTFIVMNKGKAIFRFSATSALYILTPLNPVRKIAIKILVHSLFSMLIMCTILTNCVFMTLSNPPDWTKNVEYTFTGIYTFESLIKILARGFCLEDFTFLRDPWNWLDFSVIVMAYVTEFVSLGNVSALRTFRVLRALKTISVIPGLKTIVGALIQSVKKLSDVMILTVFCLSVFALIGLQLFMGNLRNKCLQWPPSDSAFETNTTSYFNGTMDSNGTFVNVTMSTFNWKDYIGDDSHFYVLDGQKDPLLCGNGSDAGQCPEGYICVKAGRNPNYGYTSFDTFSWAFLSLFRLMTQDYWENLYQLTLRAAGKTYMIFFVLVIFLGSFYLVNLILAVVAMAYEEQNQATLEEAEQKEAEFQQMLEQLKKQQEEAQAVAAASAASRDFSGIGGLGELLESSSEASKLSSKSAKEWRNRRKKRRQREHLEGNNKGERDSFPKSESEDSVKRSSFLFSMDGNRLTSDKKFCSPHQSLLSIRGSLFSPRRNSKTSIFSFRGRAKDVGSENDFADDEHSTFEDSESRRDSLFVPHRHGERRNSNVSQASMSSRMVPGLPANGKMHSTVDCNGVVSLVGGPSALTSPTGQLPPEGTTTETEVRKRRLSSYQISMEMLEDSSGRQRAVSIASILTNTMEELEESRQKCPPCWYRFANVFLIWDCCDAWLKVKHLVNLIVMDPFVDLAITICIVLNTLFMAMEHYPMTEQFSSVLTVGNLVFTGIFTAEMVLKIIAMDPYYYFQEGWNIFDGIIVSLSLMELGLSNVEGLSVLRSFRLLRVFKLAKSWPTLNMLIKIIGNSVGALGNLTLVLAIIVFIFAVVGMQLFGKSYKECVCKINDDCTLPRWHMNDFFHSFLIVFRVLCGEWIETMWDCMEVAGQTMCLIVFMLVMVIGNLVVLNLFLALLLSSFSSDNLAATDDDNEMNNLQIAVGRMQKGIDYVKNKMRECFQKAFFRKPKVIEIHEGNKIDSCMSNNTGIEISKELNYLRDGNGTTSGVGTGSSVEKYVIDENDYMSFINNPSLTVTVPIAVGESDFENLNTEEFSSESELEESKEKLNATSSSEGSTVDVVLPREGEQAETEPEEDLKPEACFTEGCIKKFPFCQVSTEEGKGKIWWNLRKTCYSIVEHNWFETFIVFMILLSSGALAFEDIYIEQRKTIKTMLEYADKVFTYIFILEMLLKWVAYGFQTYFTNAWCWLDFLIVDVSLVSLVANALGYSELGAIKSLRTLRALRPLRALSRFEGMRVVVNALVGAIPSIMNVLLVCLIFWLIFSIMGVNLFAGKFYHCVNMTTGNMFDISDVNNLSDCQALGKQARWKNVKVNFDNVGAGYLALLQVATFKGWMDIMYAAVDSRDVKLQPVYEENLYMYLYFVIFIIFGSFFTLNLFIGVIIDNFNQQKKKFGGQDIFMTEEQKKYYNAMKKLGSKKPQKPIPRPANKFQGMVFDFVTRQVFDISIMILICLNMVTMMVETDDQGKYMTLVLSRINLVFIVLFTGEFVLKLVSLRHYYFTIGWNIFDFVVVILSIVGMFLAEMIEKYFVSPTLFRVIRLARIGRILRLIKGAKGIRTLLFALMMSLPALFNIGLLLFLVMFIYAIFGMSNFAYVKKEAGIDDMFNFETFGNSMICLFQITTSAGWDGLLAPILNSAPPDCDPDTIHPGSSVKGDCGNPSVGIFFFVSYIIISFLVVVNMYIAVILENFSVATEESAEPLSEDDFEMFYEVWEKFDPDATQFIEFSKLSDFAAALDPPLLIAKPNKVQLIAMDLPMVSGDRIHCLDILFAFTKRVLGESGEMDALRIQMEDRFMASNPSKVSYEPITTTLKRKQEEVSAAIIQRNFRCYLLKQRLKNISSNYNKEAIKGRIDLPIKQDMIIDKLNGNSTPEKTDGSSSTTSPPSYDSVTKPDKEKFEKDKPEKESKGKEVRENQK

Nav1.6 = Nav1.6 (Homo sapiens, UniProt Q9UQD0); conditions: read-out: TTX IC-50; cited from earlier work
Nav1.9 = Nav1.9 (Homo sapiens, UniProt Q9UI33); conditions: read-out: TTX IC-50; cited from earlier work
Nav1.8 = Nav1.8 (Homo sapiens, UniProt Q9Y5Y9); conditions: read-out: TTX IC-50; cited from earlier work
Chain of Nav1.8 (Q9Y5Y9 whole entry, looked up): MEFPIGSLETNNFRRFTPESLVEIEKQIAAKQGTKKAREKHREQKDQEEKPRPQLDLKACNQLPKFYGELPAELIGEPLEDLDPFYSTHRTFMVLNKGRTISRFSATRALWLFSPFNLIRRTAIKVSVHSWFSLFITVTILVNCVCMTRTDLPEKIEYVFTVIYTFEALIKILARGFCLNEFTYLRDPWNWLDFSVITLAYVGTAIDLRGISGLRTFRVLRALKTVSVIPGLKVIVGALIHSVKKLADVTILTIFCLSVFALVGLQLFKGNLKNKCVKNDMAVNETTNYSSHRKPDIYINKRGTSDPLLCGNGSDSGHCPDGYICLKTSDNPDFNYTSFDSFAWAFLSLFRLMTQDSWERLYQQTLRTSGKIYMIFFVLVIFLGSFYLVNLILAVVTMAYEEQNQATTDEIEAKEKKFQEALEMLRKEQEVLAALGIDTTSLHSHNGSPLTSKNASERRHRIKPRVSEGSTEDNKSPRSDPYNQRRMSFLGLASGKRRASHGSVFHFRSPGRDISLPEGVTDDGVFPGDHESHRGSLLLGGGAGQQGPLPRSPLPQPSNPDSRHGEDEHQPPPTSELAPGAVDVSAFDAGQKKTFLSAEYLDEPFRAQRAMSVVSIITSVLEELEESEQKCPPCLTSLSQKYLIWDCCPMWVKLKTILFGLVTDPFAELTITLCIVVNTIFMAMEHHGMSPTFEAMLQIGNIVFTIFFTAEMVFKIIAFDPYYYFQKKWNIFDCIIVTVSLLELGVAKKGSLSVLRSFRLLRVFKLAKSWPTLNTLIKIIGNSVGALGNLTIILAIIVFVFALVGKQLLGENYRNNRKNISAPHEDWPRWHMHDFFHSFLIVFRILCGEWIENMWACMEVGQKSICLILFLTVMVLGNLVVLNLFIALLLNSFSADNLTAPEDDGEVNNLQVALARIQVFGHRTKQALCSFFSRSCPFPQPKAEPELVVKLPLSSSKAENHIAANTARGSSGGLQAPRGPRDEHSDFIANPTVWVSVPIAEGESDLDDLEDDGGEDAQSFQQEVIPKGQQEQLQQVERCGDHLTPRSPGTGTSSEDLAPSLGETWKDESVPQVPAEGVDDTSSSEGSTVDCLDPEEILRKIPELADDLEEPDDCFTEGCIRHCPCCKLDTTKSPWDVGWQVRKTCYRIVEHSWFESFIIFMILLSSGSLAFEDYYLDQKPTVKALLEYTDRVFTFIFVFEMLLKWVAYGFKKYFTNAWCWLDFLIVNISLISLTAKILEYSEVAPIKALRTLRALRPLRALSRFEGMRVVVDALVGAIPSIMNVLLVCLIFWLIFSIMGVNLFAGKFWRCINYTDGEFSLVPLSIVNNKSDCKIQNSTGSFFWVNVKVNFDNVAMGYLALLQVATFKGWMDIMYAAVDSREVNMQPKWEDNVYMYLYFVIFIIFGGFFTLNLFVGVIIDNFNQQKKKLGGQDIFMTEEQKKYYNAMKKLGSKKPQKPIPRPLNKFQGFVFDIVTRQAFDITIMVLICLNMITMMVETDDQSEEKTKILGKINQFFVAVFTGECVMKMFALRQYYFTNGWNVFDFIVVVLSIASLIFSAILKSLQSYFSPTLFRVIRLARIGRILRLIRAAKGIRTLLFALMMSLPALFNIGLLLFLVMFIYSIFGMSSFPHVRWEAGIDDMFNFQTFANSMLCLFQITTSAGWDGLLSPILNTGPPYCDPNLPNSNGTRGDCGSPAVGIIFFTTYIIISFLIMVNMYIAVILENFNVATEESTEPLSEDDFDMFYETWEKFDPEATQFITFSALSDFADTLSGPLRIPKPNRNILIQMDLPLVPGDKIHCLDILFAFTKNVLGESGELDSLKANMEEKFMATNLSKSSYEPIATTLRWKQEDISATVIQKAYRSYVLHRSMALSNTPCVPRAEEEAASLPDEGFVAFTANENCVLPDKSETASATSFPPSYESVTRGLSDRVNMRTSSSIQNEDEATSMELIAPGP

Nav1.2 = Nav1.2 (Homo sapiens, UniProt Q99250); conditions: read-out: TTX IC-50; cited from earlier work

T1 sequence (Q9NY46 whole entry): as the sequence (Q9NY46 whole entry, looked up) above

Row | Compound | IC50 (hSCN3A) | also measured
1 | NCC1(CC(=O)O)CCCCC1 [gabapentin] |  | patients respond to gabapentin treatment for neuropathic pain [1]: 30%
2 | O=S(=O)(Nc1nccs1)c1ccc(-c2nc(Cc3ccc(C(F)(F)F)cc3)c[nH]2)cc1 [Compound 34, N-Thiazol-2-yl-4-[4-(4-trifluoromethyl-benzyl)-1H-imidazol-2-yl]-benzenesulfonamide] | 0.1 to 0.5 µM | 
3 | O=S(=O)(Nc1nccs1)c1ccc(-c2nc(Cc3ccc(Oc4ccccc4)cc3)c[nH]2)cc1 [Compound 42, 4-[4-(4-Phenoxy-benzyl)-1H-imidazol-2-yl]-N-thiazol-2-yl-benzenesulfonamide] | < 0.1 µM | 
4 | O=S(=O)(Nc1nccs1)c1ccc(NCC(c2ccccc2)c2ccccc2)nc1 [Compound 124, 6-(2,2-Diphenyl-ethylamino)-pyridine-3-sulfonic acid thiazol-2-ylamide] | 0.5 to 1 µM | 
5 | O=S(=O)(Nc1nccs1)c1ccc(-c2nc(C3(c4ccc(Cl)cc4)CCC3)c[nH]2)cc1 [Compound 25, 4-{4-[1-(4-Chloro-phenyl)-cyclobutyl]-1H-imidazol-2-yl}-N-thiazol-2-yl-benzenesulfonamide] | 0.1 to 0.5 µM | 
6 | O=S(=O)(Nc1nccs1)c1ccc(-c2nc(CCCOc3ccc(Cl)cc3)c[nH]2)cc1 [Compound 9, 4-{4-[3-(4-Chloro-phenoxy)-propyl]-1H-imidazol-2-yl}-N-thiazol-2-yl-benzenesulfonamide] | 0.5 to 1 µM | 
7 | O=S(=O)(Nc1nccs1)c1ccc(-c2nc(Cc3ccc(F)cc3Cl)c[nH]2)cc1 [Compound 13, 4-[4-(2-Chloro-4-fluoro-benzyl)-1H-imidazol-2-yl]-N-thiazol-2-yl-benzenesulfonamide] | < 0.1 µM | 
8 | CC1(c2ccc(S(=O)(=O)Nc3nccs3)cc2)NC(=O)N(Cc2ccc(Cl)c(Cl)c2)C1=O (centres unmarked) [Compound 100, 4-[1-(3,4-Dichloro-benzyl)-4-methyl-2,5-dioxo-imidazolidin-4-yl]-N-thiazol-2-yl-benzenesulfonamide] | > 1 µM | 
9 | O=S(=O)(Nc1nccs1)c1ccc(-c2nnc(Cc3ccc(Cl)c(Cl)c3)[nH]2)cc1 [Compound 95, 4-[5-(3,4-Dichloro-benzyl)-4H-[1,2,4]triazol-3-yl]-N-thiazol-2-yl-benzenesulfonamide] | < 0.1 µM | 
10 | O=S(=O)(Nc1nccs1)c1ccc(-c2nc(COc3c(Cl)cccc3Cl)n[nH]2)cc1 [Compound 119, 4-[5-(2,6-Dichloro-phenoxymethyl)-2H-[1,2,4]triazol-3-yl]-n-thiazol-2-yl-benzenesulfonamide] | > 1 µM | 
11 | O=S(=O)(Nc1nccs1)c1ccc(-c2nc(Cc3cccc(Cl)c3)c[nH]2)cc1 [Compound 16, 4-[4-(3-Chloro-benzyl)-1H-imidazol-2-yl]-N-thiazol-2-yl-benzenesulfonamide] | < 0.1 µM | 
12 | O=S(=O)(Nc1nccs1)c1ccc(-c2nc(CCc3cccc(Cl)c3)c[nH]2)cc1 [Compound 28, 4-{4-[2-(3-Chloro-phenyl)-ethyl]-1H-imidazol-2-yl}-N-thiazol-2-yl-benzenesulfonamide] | 0.1 to 0.5 µM | 
13 | NC1=N[C@H](O)[C@H]2[C@H]3O[C@]4(O)O[C@@H]([C@@H](O)[C@@]2(N1)[C@@H]4O)[C@]3(O)CO [TTX, tetrodotoxin] |  | IC50 (Nav1.1): 0.01 µM; IC50 (Nav1.3): 0.015 µM; IC50 (Nav1.6): 0.006 µM; IC50 (Nav1.9): 1 µM; IC50 (Nav1.8): 50 µM; IC50 (Nav1.2): 0.01 µM
14 | O=S(=O)(Nc1nccs1)c1ccc(-c2nc(COc3c(Cl)cccc3Cl)n[nH]2)cc1F [Compound 115, 4-[5-(2,6-Dichloro-phenoxymethyl)-2H-[1,2,4]triazol-3-yl]-2-fluoro-n-thiazol-2-yl-benzenesulfonamide] | 0.1 to 0.5 µM | 
15 | COc1ccc(CCc2c[nH]c(-c3ccc(S(=O)(=O)Nc4nccs4)cc3)n2)cc1Cl [Compound 18, 4-{4-[2-(3-Chloro-4-methoxy-phenyl)-ethyl]-1H-imidazol-2-yl}-N-thiazol-2-yl-benzenesulfonamide] | 0.1 to 0.5 µM | 
16 | O=S(=O)(Nc1nccs1)c1ccc(-c2nc(Cc3ccc(F)c(F)c3)c[nH]2)cc1 [Compound 23, 4-[4-(3,4-Difluoro-benzyl)-1H-imidazol-2-yl]-N-thiazol-2-yl-benzenesulfonamide] | 0.1 to 0.5 µM | 
17 | Cc1ccc(C2(c3c[nH]c(-c4ccc(S(=O)(=O)Nc5nccs5)cc4)n3)CCCCC2)cc1 [Compound 21, N-Thiazol-2-yl-4-[4-(1-p-tolyl-cyclohexyl)-1H-imidazol-2-yl]-benzenesulfonamide] | 0.1 to 0.5 µM | 
18 | CS(=O)(=O)c1ccc(Cc2c[nH]c(-c3ccc(S(=O)(=O)Nc4nccs4)cc3)n2)cc1 [Compound 54, 4-[4-(4-Methanesulfonyl-benzyl)-1H-imidazol-2-yl]-N-thiazol-2-yl-benzenesulfonamide] | > 1 µM | 

— US7615569B2, “Inhibitors of ion channels” (Icagen, Inc., priority 2005, dated 2009)
